# In patent publication US20190201414A1, “INHIBITOR OF HEME DEGRADATION FOR USE TO IMPROVE ANTIBIOTIC TREATMENT OF MYCOBACTERIUM TUBERCULOSIS INFECTION” (The United States of America, as represented by the …, priority 2016, published 2019):
# “Also recorded” adds a separate entry of the source. Like-named read-outs stand apart in the source and are kept apart here.
# Assays:
# [1] = tested on: Mtb-infected bone marrow derived macrophages (BMDM); experiment: bacterial load in Mtb-infected bone marrow derived macrophages; assay type: cell-based; details: for effect on SnPPIX-induced reduction in bacillary load: incubated in conjunction with SnPPIX; for number of bacteria: iron donor added alone; for reduction in the number of bacilli: iron chelating agent added to SnPPIX; for intracellular bacterial burden: iron chelating agent alone
# [2] = target: T1, M. tuberculosis MhuD (Mycobacterium tuberculosis, UniProt P9WKH3); experiment: MhuD heme/SnPPIX degradation assay by UV/vis spectroscopy; assay type: biochemical
# T1 construct: His6 (C); made in house; host or cells: Escherichia coli BL21-Gold (DE3)
# [3] = target: T2, recombinant human HO-1-G139A (hHO-1) (Homo sapiens, UniProt P09601, G139A); experiment: heme degradation by recombinant human HO-1-G139A, UV/vis spectroscopy; assay type: biochemical; details: 2 μM SnPPIX, 1 hour
# T2 construct: made in house
# T2 sequence (P09601 1-288 G139A): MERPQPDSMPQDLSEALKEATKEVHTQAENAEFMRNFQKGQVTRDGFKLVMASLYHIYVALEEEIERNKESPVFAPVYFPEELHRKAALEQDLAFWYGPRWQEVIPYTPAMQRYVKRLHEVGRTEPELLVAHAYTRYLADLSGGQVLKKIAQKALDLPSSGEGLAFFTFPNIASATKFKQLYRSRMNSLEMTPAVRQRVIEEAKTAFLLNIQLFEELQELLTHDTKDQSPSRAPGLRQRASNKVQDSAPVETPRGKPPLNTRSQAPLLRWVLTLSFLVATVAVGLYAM
# [4] = newborns, clinical use; cited from earlier work
# [5] = tested on: GFP-expressing M. tuberculosis/pMSP12; experiment: microbe, parasite or virus in culture; assay type: cell-based; details: for MIC: read-out: day 21 MIC95
# [6] = tested on: M. tuberculosis strain H37Rv; assay type: in vivo, mice
# [7] = tested on: heme oxygenase; details: comparison SnPPIX vs ZnPPIX; cited from earlier work
# [8] = tested on: M. tuberculosis strain H37Rv; experiment: micro-dilution broth MIC99 assay in GAST media; assay type: cell-based; details: for inhibition of bacterial growth: 28-day period; for MIC99: read-out: day 28 MIC99
# [9] = comparison ZnPPIX vs SnPPIX; cited from earlier work
# T1 sequence (P9WKH3 whole entry): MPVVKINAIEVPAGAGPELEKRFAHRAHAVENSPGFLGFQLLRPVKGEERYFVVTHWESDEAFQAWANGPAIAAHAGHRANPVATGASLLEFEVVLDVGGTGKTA
smiles,measurement,setting,value
"C=Cc1c(C)c2cc3[nH]c(cc4nc(cc5nc(cc1[nH]2)C(C)=C5CCC(=O)[O-])C(CCC(=O)[O-])=C4C)c(C)c3C=C.[Cl-].[Cl-].[Sn+4] [SnPPIX, tin (IV) protoporphyrin IX dichloride]",cellular bacterial load,[1]; added alone,reduced cellular bacterial load
same,effect on heme degradation by MhuD,"[2]; 2 μM SnPPIX, 5 μM MhuD-heme, 1 hour",does not appear to have an effect
same,SnPPIX degradation by MhuD,[2]; monitored for 24 hours,no SnPPIX degradation even after 24 hours
same,heme-degrading activity of HO-1,[3],blocked
same,side effects,[4],minimum side effects
same,MIC,[5]; pH 6,>125 µM
same,inhibition of bacterial growth,[5]; pH 7,no inhibition of bacterial growth was observed
same,MIC,[5],>125 µM
same,effect on bacterial load by organ,"[6]; C57BL/6, lungs vs mediastinal lymph nodes or spleens",more prominent in the lungs
same,enhancement of RHZ efficacy,[6]; SnPPIX initiated 6 weeks after initiation of RHZ therapy,failed to enhance RHZ efficacy
same,bacterial loads,"[6]; TCR-α−/− mice, treatment from 4 wpi, euthanized two weeks after initiation",indistinguishable from those of untreated
same,mycobacterial load,"[6]; mouse, in vivo",highly significant reduction
same,protection / mortality kinetics,"[6]; mouse, in vivo",failed to protect
same,pulmonary bacterial load,"[6]; mouse, in vivo",not at 3 wpi; also recorded: no difference in bacterial loads
same,reduction in pulmonary bacterial loads below untreated infected mice,"[6]; mouse, in vivo",~1 log
same,bacterial loads in lungs and mediastinal lymph nodes vs non-treated mice,"[6]; mouse, in vivo, ip",diminished bacterial loads
same,pulmonary bacterial load,"[6]; mouse, in vivo, ip, 5 mg/kg",highly significant reduction
same,heme oxygenase inhibitory capacity,[7],higher heme oxygenase inhibitory capacity compared with ZnPPIX
same,inhibition of bacterial growth,"[8]; 125 μM, complete (iron-containing) GAST medium",No inhibition of bacterial growth was observed
same,effect of hemin addition on toxicity in iron-free medium,"[8]; 125 μM, iron-free medium plus 10 μM hemin",reversed this effect
same,inhibition of bacterial growth,"[8]; 125 μM, iron-free medium",toxicity was observed
same,MIC99,[8]; GAST + 10 μM Hemin,>125 µM
same,MIC99,[8]; GAST medium,125 µM
same,MIC99,[8]; GASTFe medium,>125 µM
O=S(=O)([O-])[O-].[Fe+2] [FeSO4],effect on SnPPIX-induced reduction in bacillary load,[1],completely inhibited the reduction in bacillary load
same,number of bacteria,[1],did not significantly enhance the number of bacteria
"C=CC1=C(C)c2cc3[n-]c(cc4[n-]c(cc5nc(cc1n2)C(C)=C5C=C)c(C)c4CCC(=O)O)c(CCC(=O)O)c3C.[Zn+2] [ZnPPIX, zinc (II) protoporphyrin IX]",solubility,[9],less soluble than SnPPIX
"NNC(=O)c1ccncc1 [Isoniazid, reference compound]",MIC99,"[8]; Mycobacterium tuberculosis, H37RV, 672 h, GAST + 10 μM Hemin",0.1 µM
same,MIC99,"[8]; Mycobacterium tuberculosis, H37RV, 672 h, GAST medium",0.1 µM
same,MIC99,"[8]; Mycobacterium tuberculosis, H37RV, 672 h, GASTFe medium",0.2 µM
"c1ccc(-c2ccccn2)nc1 [DP, 2′2′dipyridyl]",reduction in the number of bacilli,[1],further enhancement in the reduction
same,intracellular bacterial burden,[1],significant reduction
"Cc1ncc(CO)c(C=NNC(=O)c2ccncc2)c1O [PIH, pyridoxal isonicotinoyl hydrazone]",reduction in the number of bacilli,[1],further enhancement in the reduction
same,intracellular bacterial burden,[1],significant reduction
"CO[C@H]1/C=C/O[C@@]2(C)Oc3c(C)c(O)c4c(O)c(c(/C=N/N5CCN(C)CC5)c(O)c4c3C2=O)NC(=O)/C(C)=C\C=C\[C@H](C)[C@H](O)[C@@H](C)[C@@H](O)[C@@H](C)[C@H](OC(C)=O)[C@@H]1C [Rifampicin, reference compound]",MIC,"[5]; Mycobacterium tuberculosis, 504 h, pH 6",0.04 µM
same,MIC,"[5]; Mycobacterium tuberculosis, 504 h",0.04 µM
[Cl][Fe]([Cl])[Cl] [FeCl3],effect on SnPPIX-induced reduction in bacillary load,[1],completely inhibited the reduction in bacillary load
same,number of bacteria,[1],did not significantly enhance the number of bacteria
